# “Also recorded” adds a separate entry of the source.
# Key:
# CYP1B1 [1] = molecular target: T1, CYP1B1 (Homo sapiens, UniProt Q16678); experiment: CYP1B1 substrate prediction model (Gaussian Kernel weighted k-NN)
# T1 sequence (Q16678 1-543): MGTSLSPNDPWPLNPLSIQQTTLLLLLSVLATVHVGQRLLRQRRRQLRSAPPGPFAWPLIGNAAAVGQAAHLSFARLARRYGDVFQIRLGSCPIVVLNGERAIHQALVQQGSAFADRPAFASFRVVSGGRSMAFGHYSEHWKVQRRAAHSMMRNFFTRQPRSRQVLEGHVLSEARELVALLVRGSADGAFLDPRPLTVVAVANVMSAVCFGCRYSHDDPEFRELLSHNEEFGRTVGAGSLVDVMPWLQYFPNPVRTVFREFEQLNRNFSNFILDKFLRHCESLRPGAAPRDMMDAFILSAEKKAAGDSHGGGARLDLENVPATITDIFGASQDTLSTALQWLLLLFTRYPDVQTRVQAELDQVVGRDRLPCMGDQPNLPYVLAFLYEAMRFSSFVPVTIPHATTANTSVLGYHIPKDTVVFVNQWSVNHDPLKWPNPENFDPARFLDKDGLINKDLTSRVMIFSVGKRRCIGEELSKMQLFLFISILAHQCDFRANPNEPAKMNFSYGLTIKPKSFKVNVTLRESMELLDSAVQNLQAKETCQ
# [2] = test system: UTSCC-14 primary human tumour xenograft; experiment: Anti-tumour activity in primary human tumour xenograft model (UTSCC-14, subcutaneous, nude mice); assay type: in vivo; details: for Tumour growth delay at 28 days: 2 cycles: daily for 5 days/2 days off
# Procedure: Primary UTSCC-14 cell lines 3×10^6 were implanted subcutaneously in the flank of nude mice. Mice were randomized to 10 animals per group when the tumour volume was 100 to 150 mm^3. SU046-04 was given intraperitoneally at 12, 25 and 50 mg/Kg in PBS versus versus vehicle alone for 2 cycles: daily for 5 days/2 days off. Tumour volume was measured every 4 days using calipers. […] Tumour growth delay at 28 days was 31% at 12 mg/Kg, 56% at 25 mg/Kg, and 90% at 50 mg/Kg with 4/10 complete responses.
# [3] = test system: human liver microsomes (HLM); experiment: Fragmentation of benzofuran ether and carbamate linked coumarins by pooled human liver microsomes (coumarin anion release); details: for Specific fragmentation activity, HLM: 60 μl HLM in 1.5 ml final reaction volume, NADPH, pH 7.4, mean ± standard deviation of three measurements
# Procedure: (§1) Supersomal™ enzyme metabolism was started by adding a stock solution of prodrug dissolved in DMSO to give a final concentration of 10 μmol dm^−3 prodrug and 0.5% DMSO. HLM screening used 60 microliter microsomes, 100 μmol dm^−3 NADPH, in 10 mmol dm^−3 potassium phosphate buffer at pH 7.4 and 37 OC, in 1.5 ml total reaction volume.
# (§2) Therefore, enzymatic hydroxylation of the hetero-aromatic trigger and resultant linker fragmentation can be monitored in real time by release of the coumarin anion by kinetic fluorimetry.
# (§3) Release of the coumarin anion indicative of linker fragmentation was monitored using a 1 cm path length fluorescence cell in a Cary Eclipse kinetic flourimeter with excitation and emission slits set at 5 nm. Coumarin anion release from compounds of the invention was detected at the excitation wavelength λex=350·nm and the emission wavelength λem=450 nm. Change in fluorescence intensity was quantified against a linear calibration plot of fluorescence intensity versus coumarin concentration (0 to 3.5 μmol dm^−3) in 10 mmol dm^−3 potassium phosphate buffer at pH 7.4 using the same instrument settings as for enzyme metabolism.
# CYP1A2 = molecular target: T2, CYP1A2 (Homo sapiens, UniProt P05177); experiment: Fragmentation of benzofuran ether and carbamate linked coumarins by Supersomal CYP1A2 (coumarin anion release, kinetic fluorimetry); assay type: biochemical; details: 10 pmol enzyme, 10 μmol dm^−3 prodrug, NADPH, pH 7.4, 37° C., mean ± standard deviation of three measurements
# T2 construct: purchased BD Gentest, Oxford, UK
# T2 sequence (P05177 2-516 limits assumed): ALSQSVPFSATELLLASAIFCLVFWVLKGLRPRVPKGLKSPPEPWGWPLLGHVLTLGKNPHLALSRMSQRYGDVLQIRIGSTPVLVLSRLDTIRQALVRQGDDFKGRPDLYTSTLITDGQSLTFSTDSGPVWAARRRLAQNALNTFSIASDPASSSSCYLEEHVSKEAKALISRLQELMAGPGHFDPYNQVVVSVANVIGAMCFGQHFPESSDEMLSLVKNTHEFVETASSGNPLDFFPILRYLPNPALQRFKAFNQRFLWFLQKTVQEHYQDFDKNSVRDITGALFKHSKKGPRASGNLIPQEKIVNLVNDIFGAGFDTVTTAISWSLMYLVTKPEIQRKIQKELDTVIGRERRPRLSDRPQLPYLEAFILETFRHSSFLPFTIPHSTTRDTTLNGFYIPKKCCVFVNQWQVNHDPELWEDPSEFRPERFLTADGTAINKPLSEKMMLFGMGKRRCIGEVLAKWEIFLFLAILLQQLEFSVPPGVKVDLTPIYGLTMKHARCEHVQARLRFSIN
# Procedure: as §1, §2, §3
# CYP1A1 = molecular target: T3, CYP1A1 (Homo sapiens, UniProt P04798); experiment: Fragmentation of benzofuran ether and carbamate linked coumarins by Supersomal CYP1A1 (coumarin anion release, kinetic fluorimetry); assay type: biochemical; parameters: purchased BD Gentest, Oxford, UK; details: 10 pmol enzyme, 10 μmol dm^−3 prodrug, NADPH, pH 7.4, 37° C., mean ± standard deviation of three measurements
# T3 sequence (P04798 1-512): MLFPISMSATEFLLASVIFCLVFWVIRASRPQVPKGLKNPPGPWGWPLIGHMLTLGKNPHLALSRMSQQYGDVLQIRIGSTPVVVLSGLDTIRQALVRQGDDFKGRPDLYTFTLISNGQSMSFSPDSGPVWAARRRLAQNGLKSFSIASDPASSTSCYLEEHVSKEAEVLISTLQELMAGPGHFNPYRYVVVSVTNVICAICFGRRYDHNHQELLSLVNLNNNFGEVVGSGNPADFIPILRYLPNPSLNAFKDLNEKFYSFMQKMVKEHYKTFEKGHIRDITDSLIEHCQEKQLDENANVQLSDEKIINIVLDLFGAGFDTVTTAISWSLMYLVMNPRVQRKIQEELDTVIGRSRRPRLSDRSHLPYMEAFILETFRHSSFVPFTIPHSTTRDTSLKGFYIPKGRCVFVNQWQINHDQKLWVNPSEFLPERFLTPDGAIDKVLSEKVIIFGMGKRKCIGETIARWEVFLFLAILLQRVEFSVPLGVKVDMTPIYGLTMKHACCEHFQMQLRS
# Procedure: as §1, §2, §3
# CYP1B1 [4] = molecular target: T1, CYP1B1; experiment: Fragmentation of benzofuran ether and carbamate linked coumarins by Supersomal CYP1B1 (coumarin anion release, kinetic fluorimetry); assay type: biochemical; parameters: purchased BD Gentest, Oxford, UK; details: 10 pmol enzyme, 10 μmol dm^−3 prodrug, NADPH, pH 7.4, 37° C., mean ± standard deviation of three measurements
# Procedure: as §1, §2, §3
Structure (SMILES),"% CYP1B1 substrate inhibition, accuracy (predicted versus actual) (CYP1B1 [1])","Specific fragmentation activity, CYP1A2 (CYP1A2)","Specific fragmentation activity, HLM [3]",also measured
COc1cc(OC)c2oc(COP(=O)(NCCBr)NCCBr)cc2c1 [SU046-04],96%,,,"Tumour growth delay at 28 days ([2]; 12 mg/Kg intraperitoneally): 31%; Tumour growth delay at 28 days ([2]; 25 mg/Kg intraperitoneally): 56%; Tumour growth delay at 28 days ([2]; 50 mg/Kg intraperitoneally): 90%; Complete responses ([2]; 50 mg/Kg intraperitoneally, 10 animals per group): 4/10; Adverse effects and body weight loss ([2]; after highest exposure 250 mg/Kg): No observed adverse effects or significant body weight loss; Tumour growth compared to the vehicle alone ([2]; all three treatment arms: 12, 25 and 50 mg/Kg intraperitoneally): significant inhibition of tumour growth"
"O=c1cc(-c2ccccc2)oc2c1ccc1ccccc12 [α-napthoflavone, α-naphthoflavone, reference compound]",,,,"Effect of α-naphthoflavone on HLM-mediated SU10A fragmentation (coumarin release) ([3]; HLM, inclusion of 10 μmol dm^−3 α-naphthoflavone): inhibits SU10A fragmentation"
Nc1ccc(S(=O)(=O)Nc2ccnn2-c2ccccc2)cc1 [sulfaphenazole],68%,,,
"Cc1cc(=O)oc2cc(OCc3cc4ccccc4o3)ccc12 [SU010A, 7-(benzofuran-2-ylmethoxy)-4-methyl-2H-chromen-2-one]",,,,"Specific fragmentation activity, CYP1A2 (CYP1A2; listed as SU10A): fragmented; Specific fragmentation activity, CYP1A1 (CYP1A1; listed as SU10A): fragmented; Specific fragmentation activity, CYP1B1 (CYP1B1 [4]; listed as SU10A): fragmented; Specific fragmentation activity, HLM ([3]; listed as SU10A): fragmented"
"Cc1cc(=O)oc2cc(NC(=O)OCc3cc4ccccc4o3)ccc12 [SU018-03, benzofuran-2-ylmethyl 4-methyl-2-oxo-2H-chromen-7-ylcarbamate]",,no release,no release,"Specific fragmentation activity, CYP1B1 (CYP1B1 [4]): no release"
"COc1cc(OC)c2oc(COC(=O)Nc3ccc4c(C)cc(=O)oc4c3)cc2c1 [VG041-05, (5,7-dimethoxybenzofuran-2-yl)methyl 4-methyl-2-oxo-2H-chromen-7-ylcarbamate]",,no release,no release,"Specific fragmentation activity, CYP1B1 (CYP1B1 [4]): not CYP1A2 or CYP1B1; also recorded: no release"
"Cc1cc(=O)oc2cc(NC(=O)OCc3cc4cc(Br)ccc4o3)ccc12 [VG036-05, (5-bromobenzofuran-2-yl)methyl 4-methyl-2-oxo-2H-chromen-7-ylcarbamate]",,no release,no release,"Specific fragmentation activity, CYP1A1 (CYP1A1): no release; Specific fragmentation activity, CYP1B1 (CYP1B1 [4]): no release"
"COc1cc(OC)c2oc(COc3ccc4c(C)cc(=O)oc4c3)cc2c1 [VG035-05, 7-((5,7-dimethoxybenzofuran-2-yl)methoxy)-4-methyl-2H-chromen-2-one]",96%,no linker fragmentation; also recorded: no release,no linker fragmentation; also recorded: no release,"Specific fragmentation activity, CYP1A1 (CYP1A1): no linker fragmentation; also recorded: no release"
"Cc1cc(=O)oc2cc(OCc3cc4cc(F)cc(F)c4o3)ccc12 [VG016-05, 7-((5,7-difluorobenzofuran-2-yl)methoxy)-4-methyl-2H-chromen-2-one]",82%,no release,no release,"Specific fragmentation activity, CYP1A1 (CYP1A1): no release; Specific fragmentation activity, CYP1B1 (CYP1B1 [4]): no fragmentation of the linker; also recorded: no release; Specific fragmentation activity, CYP1B1 (CYP1B1 [4]; listed as VG016-04): inhibits CYP1 isoenzyme and HLM-induced fragmentation"
"COc1ccc2oc(COC(=O)Nc3ccc4c(C)cc(=O)oc4c3)cc2c1 [VG032-05, (5-methoxybenzofuran-2-yl)methyl 4-methyl-2-oxo-2H-chromen-7-ylcarbamate]",,no release,,
COc1cc(OC)c2oc(COP(=O)(NCCCl)NCCCl)cc2c1 [SU025-04],96%,,,
Oc1ccc(C=Cc2cc(O)cc(O)c2)cc1 [resveratrol],95%,,,
"CCOc1ccc2nc3ccc(=O)cc-3oc2c1 [ethoxyresorufin, 7-ethoxyresorufin]",95%,,,
C=C[C@H]1C[N@@]2CC[C@H]1C[C@@H]2[C@@H](O)c1ccnc2ccc(OC)cc12 [quinidine],64%,,,
C[C@]12CC[C@@H]3c4ccc(O)cc4CC[C@H]3[C@@H]1CC[C@@H]2O [β-estradiol],95%,,,

# — patent US9919060B2 (University Court of the University of Dundee, priority 2009, dated 2018)
